Experimental data reported in US20100010035A1, “Novel Dual Action Receptors Antagonists (Dara) at the Ati and Eta Receptors” (priority 2006, published 2010).

How the values were obtained:
human ETA receptor = target: T1, human ETA receptor (Homo sapiens, UniProt P25101); assay: ETA functional assay (FLIPR Ca efflux, Endothelin-1 at EC80); format: cell-based; settings: CHO cells over-expressing full length human ETA receptor; Endothelin-1 as agonist at EC80
T1 construct: CHO cell stably over-expressing the full length human ETA receptor; expressed in transfected cells
T1 sequence (P25101 21-427): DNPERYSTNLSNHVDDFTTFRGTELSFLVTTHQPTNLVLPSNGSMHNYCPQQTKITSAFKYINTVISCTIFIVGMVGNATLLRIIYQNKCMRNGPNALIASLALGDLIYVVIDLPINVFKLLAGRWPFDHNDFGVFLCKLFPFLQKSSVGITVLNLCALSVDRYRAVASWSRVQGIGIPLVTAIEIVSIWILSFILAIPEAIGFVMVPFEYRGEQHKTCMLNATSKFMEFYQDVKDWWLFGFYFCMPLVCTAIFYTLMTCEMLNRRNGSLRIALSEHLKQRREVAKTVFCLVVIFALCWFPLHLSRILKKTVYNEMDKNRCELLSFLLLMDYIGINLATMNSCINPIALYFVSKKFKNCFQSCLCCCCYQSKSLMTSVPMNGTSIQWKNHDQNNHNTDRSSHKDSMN
Description: (§1) CHO cell stably over-expressing the full length human ETA receptor was cultured in DMEM (Gibco) with 10% FCS (Hyclone) and selection maintained using 0.5 mg/ml G418 (Gibco). Cell at 70% confluence were trypsnised, resuspended in media and counted. 20,000 cells/well were plated into black polystyrene 384-well plates with transparent bottoms and allowed 16 hours to adhere. The cells were loaded with Flou-4 (TEFLABS, USA) dye in BSS (Gibco) for 1 hour and then washed in HBSS and 0.6 μl of diluted compounds in DMSO added to the cells in 30 μl of HBSS in Multimek liquid handling system (Beckman, USA). The cells were then placed in the Fluorometric Imaging Plate Readers (FLIPR, Molecular Devices, USA) and 20 μl of Endothelin-1 peptide as agonist in HBSS (at EC80) was added in the instrument.
(§2) The Ca efflux was followed for 2 mins and the maximum height of the peak was measured at various compound concentrations and plotted according to the equation
(§3) and IC50 estimated wherein A is the bottom plateau of the curve i.e. the final minimum y value B is the top of the plateau of the curve i.e. the final maximum y value C is the x value at the middle of the curve. This represents the log EC50 value when A+B=100 D is the slope factor. x is the original known x values. y is the original known y values.

human AT1 receptor = target: T2, human AT1 receptor (Homo sapiens, UniProt P30556); assay: AT1 functional assay (FLIPR Ca efflux, Angiotensin-II at EC80); format: cell-based; settings: CHO cells over-expressing full length human AT1 receptor; Angiotensin-II as agonist at EC80
T2 construct: CHO cell stably over-expressing the full length human AT1 receptor; expressed in transfected cells
T2 sequence (P30556 1-359): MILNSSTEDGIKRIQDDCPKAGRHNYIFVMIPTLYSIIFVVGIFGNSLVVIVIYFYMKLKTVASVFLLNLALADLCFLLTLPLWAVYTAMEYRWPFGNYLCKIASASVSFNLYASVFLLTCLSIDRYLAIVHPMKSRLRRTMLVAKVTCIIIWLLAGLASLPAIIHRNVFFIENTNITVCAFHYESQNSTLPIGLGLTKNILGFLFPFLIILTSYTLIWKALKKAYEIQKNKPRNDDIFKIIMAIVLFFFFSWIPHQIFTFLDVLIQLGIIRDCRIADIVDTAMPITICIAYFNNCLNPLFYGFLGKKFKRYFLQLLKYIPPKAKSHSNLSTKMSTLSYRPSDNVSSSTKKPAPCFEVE
Description: as §1, with “human AT1” for “human ETA”, “in HBSS” for “in BSS”, “30 μd” for “30 μl”, “of Angiotensin-II” for “of Endothelin-1”, “agonist (at EC80)” for “agonist”, “HBSS” for “HBSS (at EC80)”
as §2, §3

Row | SMILES | IC50 (human ETA receptor) [nM] | IC50 (human AT1 receptor) [nM]
1 | CCc1cc2c(c(Sc3ccccc3)cc(=O)n2Cc2ccc(-c3ccsc3S(=O)(=O)Nc3noc(C)c3C)cc2)c(CC)n1 [Example 3, 3-[4-(5,7-diethyl-2-oxo-4-phenylsulphanyl-2H-[1,6]naphthyridin-1 ylmethyl)-phenyl]-thiophene-2-sulphonic acid(4,5-dimethyl-isoxazol-3-yl)-amide] | 2920 | 125
2 | CCc1cc(OCc2ccc(-c3ccsc3S(=O)(=O)Nc3noc(C)c3C)cc2)c(C(=O)c2ccccc2)c(C)n1 [Example 4, 3-[4-(3-Benzoyl-6-ethyl-2-methyl-pyridin-4-yloxymethyl)-phenyl]-thiophene-2-sulphonic acid (4,5-dimethyl-isoxazol-3-yl)-amide] | 6200 | 29
3 | CCc1cc2c(ccc(=O)n2Cc2ccc(-c3cc(C)sc3S(=O)(=O)Nc3noc(C)c3C)cc2)c(CC)n1 [Example 7, 3-[4-(5,7-diethyl-2-oxo-2H-[1,6]naphthyridin-1-yl-methyl)-phenyl]-5-methyl-thiophene-2-sulphonic acid-(4,5 dimethyl-isoxazol-3-yl)-amide] | 814 | 24.6
4 | CCc1cc2c(c(Oc3ccccc3)cc(=O)n2Cc2ccc(-c3ccsc3S(=O)(=O)Nc3noc(C)c3C)cc2)c(CC)n1 [Example 8, 3-[4-(5,7-diethyl-2-oxo-4-phenoxy-2H-[1,6]naphthyridin-1-ylmethyl)-phenyl]-thiophene-2-sulphonic acid(4,5-dimethyl-isoxazol-3-yl)-amide] | 2870 | 20.8
5 | CCOCc1cc(Cn2nc(-c3cccs3)c3c(C)nc(CC)cc32)ccc1-c1cc(C)sc1S(=O)(=O)Nc1noc(C)c1C [Example 22, 3-[2-Ethoxymethyl-4-(6-ethyl-4-methyl-3-thiophen-2-yl-pyrazolo[4,3-c]pyridin-1-ylmethyl)-phenyl]-5-methyl-thiophene-2-sulfonic acid (4,5-dimethyl-isoxazol-3-yl)-amide] | 454 | 25.2
6 | CCOCc1cc(Cn2nc(-c3ccc(OC)cc3)c3c(C)nc(CC)cc32)ccc1-c1cc(C)sc1S(=O)(=O)Nc1noc(C)c1C [Example 23, 3-{2-Ethoxymethyl-4-[6-ethyl-3-(4-methoxy-phenyl)-4-methyl-pyrazolo[4,3-c]pyridin-1-ylmethyl]-phenyl}-5-methyl-thiophene-2-sulfonic acid (4,5-dimethyl-isoxazol-3-yl)-amide] | 248 | 22.1
7 | CCOc1nc2cccc(C(=O)O)c2n1Cc1ccc(-c2cc(C)sc2S(=O)(=O)Nc2onc(C)c2C)cc1 [Example 26, 3-{4-[2-(3,4-dimethyl-isoxazol-5-ylsulfamoyl)-5-methyl-thiophen-3-yl]-benzyl}-2-ethoxy-3H-benzoimidazole-4-carboxylic acid] | 18900 | 117
8 | CCc1cc2c(c(C)n1)c(-c1ccccc1)nn2Cc1ccc(-c2ccsc2S(=O)(=O)Nc2ncc(C)nc2OC)cc1 [Example 34] | 7040 | 189
9 | CCc1cc2c(ccc(=O)n2Cc2ccc(-c3cc(C)sc3S(=O)(=O)Nc3noc(C)c3C)c(F)c2)c(CC)n1 [Example 35, 3-[4-(5,7-Diethyl-2-oxo-2H-[1,6]naphthyridin-1-ylmethyl)-2-fluoro-phenyl]-5-methyl-thiophene-2-sulfonic acid (4,5-dimethyl-isoxazol-3-yl)-amide] | 2570 | 27.6
10 | Cc1cc2c(ccc(=O)n2Cc2ccc(-c3cc(C)sc3S(=O)(=O)Nc3noc(C)c3C)c(OCC(C)C)c2)c(C)n1 [Example 36, 3-[4-(5,7-Dimethyl-2-oxo-2H-[1,6]naphthyridin-1-ylmethyl)-2-isobutoxy-phenyl]-5-methyl-thiophene-2-sulfonic acid (4,5-dimethyl-isoxazol-3-yl)-amide] | 758 | 58.3
11 | Cc1cc2c(c(C)n1)c(-c1ccc(Cl)cc1)nn2Cc1ccc(-c2cc(C)sc2S(=O)(=O)Nc2noc(C)c2C)c(C)c1 [Example 37, 3-{4-[3-(4-Chloro-phenyl)-4,6-dimethyl-pyrazolo[4,3-c]pyridin-1-ylmethyl]-2-methyl-phenyl}-5-methyl-thiophene-2-sulfonic acid (4,5-dimethyl-isoxazol-3-yl)-amide] | 407 | 153

Other lines, results leading:

Row | IC50 (human ETA receptor) [nM] | IC50 (human AT1 receptor) [nM] | SMILES
12 | 562 | 22.9 | CCOCc1cc(Cn2nc(C)c3c(C)nc(CC)cc32)ccc1-c1cc(C)sc1S(=O)(=O)Nc1noc(C)c1C [Example 6, 3-[2-Ethoxymethyl-4-(6-ethyl-3,4-dimethyl-pyrazolo[4,3-c]pyridine-1-ylmethyl)-phenyl]-5-methyl-thiophene-2-sulphonic acid(4,5-dimethyl-isoxazol-3-yl)-amide]
13 | 503 | 11.4 | CCOCc1cc(Cn2nc(Cn3nc(C)cc3C)c3c(C)nc(C)cc32)ccc1-c1cc(C)sc1S(=O)(=O)Nc1noc(C)c1C [Example 15, 3-{4-[3-(3,5-Dimethyl-pyrazol-1-ylmethyl)-4,6-dimethyl-pyrazolo[4,3-c]pyridin-1-ylmethyl]2-ethoxymethyl-phenyl}-5-methyl-thiophene-2-sulphonic acid (4,5-dimethyl-isoxazol-3-yl)-amide]
14 | 1430 | 7.98 | Cc1cc2c(c(C)n1)c(-c1ccccc1)nn2Cc1ccc(-c2cc(C)sc2S(=O)(=O)Nc2noc(C)c2C)c(C)c1 [Example 18]
15 | 464 | 7.47 | COCc1cc(Cn2nc(-c3cccs3)c3c(C)nc(C)cc32)ccc1-c1cc(C)sc1S(=O)(=O)Nc1noc(C)c1C [Example 21, 3-[4-(4,6-dimethyl-3-thiophen-2-yl-pyrazolo[4,3-c]pyridin-1-ylmethyl)-2-methoxymethyl-phenyl]-5-methyl-thiophene-2-sulfonic acid (4,5-dimethyl-isoxazol-3-yl)-amide]
16 | 1890 | 27.4 | CCc1cc2c(c(C)n1)c(-c1ccc(OC)cc1)nn2Cc1ccc(-c2cc(C)sc2S(=O)(=O)Nc2noc(C)c2C)c(C)c1 [Example 24, 3-{4-[6-Ethyl-3-(4-methoxy-phenyl)-4-methyl-pyrazolo[4,3-c]pyridin-1-ylmethyl]-2-methyl-phenyl}-5-methyl-thiophene-2-sulfonic acid (4,5-dimethyl-isoxazol-3-yl)-amide]
17 | 646 | 15.6 | CCOCc1cc(Cn2nc(-c3cccs3)c3c(C)nc(CC)cc32)ccc1-c1cc(C)sc1S(=O)(=O)Nc1onc(C)c1C [Example 27, 3-[2-Ethoxymethyl-4-(6-ethyl-4-methyl-3-thiophen-2-yl-pyrazolo[4,3-c]pyridin-1-ylmethyl)-phenyl]-5-methyl-thiophene-2-sulfonic acid (3,4-dimethyl-isoxazol-5-yl)-amide]
18 | 292 | 15.9 | Cc1cc2c(cc(-c3ccccc3)c(=O)n2Cc2ccc(-c3cc(C)sc3S(=O)(=O)Nc3noc(C)c3C)c(C)c2)c(C)n1 [Example 29, 3-[4-(5,7-dimethyl-2-oxo-3-phenyl-2H-[1,6]naphthyridin-1-ylmethyl)-2-methyl-phenyl]-5-methyl-thiophene-2-sulfonic acid (4,5-dimethyl-isoxazol-3-yl)-amide]
19 | 3320 | 18.9 | CCc1cc2c(ccc(=O)n2Cc2ccc(-c3cc(C)sc3S(=O)(=O)Nc3onc(C)c3C)c(C)c2)c(CC)n1 [Example 30, 3-[4-(5,7-diethyl-2-oxo-2H-[1,6]naphthyridin-1-ylmethyl)-2-methyl-phenyl]-5-methyl-thiophene-2-sulfonic acid (3,4-dimethyl-isoxazol-5-yl)-amide]
